The source of these data is ChEMBL document CHEMBL3217708, “2-Anilinonicotinyl linked 1,3,4-oxadiazole derivatives: Synthesis, antitumour activity and inhibition of tubulin polymerization” (2011).

One test addresses Tubulin (Bos taurus) (UniProt Q6B856+Q862L2+Q862F3). Briefly: Inhibition of bovine brain tubulin polymerization at 3 uM measured for 1 hr by fluorimetric assay.
Test [1] deals with A549. Briefly: Induction of apoptosis in human A549 cells assessed as caspase-9 activation at 1 uM after 24 hrs by fluorimetry relative to control. Type of test: functional.
The subject of test [2] is A549. As to the kind of experiment: Cell cycle arrest in human A549 cells assessed as accumulation at G2/M phase at 1 uM after 48 hrs by propidium iodide staining based flow cytometry (reference value: 10%). Format: functional. (A flow cytometer gives signals particle by particle.)
The next test has as its system HeLa. Briefly: Growth inhibition of human HeLa cells after 48 hrs by sulforhodamine B assay. Format: functional.
A further test has as its system MDA-MB-231. As to the kind of experiment: Growth inhibition of human MDA-MB-231 cells after 48 hrs by sulforhodamine B assay. Format: functional. Conditions: MDA-MB-231, 48 h.
The subject of test [3] is A549. Briefly: Cell cycle arrest in human A549 cells assessed as accumulation at G1 phase at 1 uM after 48 hrs by propidium iodide staining based flow cytometry (reference value: 78%). Format: functional.
In test [4] the test system is A549. Briefly: Inhibition of alpha-tubulin polymerization in human A549 cells assessed as ratio of soluble to polymerized tubulin at 1 uM after 24 hrs by western blot analysis. Format: functional.
Test [5] relates to A549. Briefly: Induction of apoptosis in human A549 cells assessed as caspase-3 activation at 1 uM after 24 hrs by fluorimetry relative to control. Type of test: functional.
The test system of another test is DU-145. Briefly: Growth inhibition of human DU145 cells after 48 hrs by sulforhodamine B assay. Conditions: DU-145, 48 h. Format: functional. For orientation: In SRB staining, fixed cells bind dye roughly in proportion to their protein.
For another test, the system named is HepG2. As to the kind of experiment: Growth inhibition of human HepG2 cells after 48 hrs by sulforhodamine B assay. The conditions noted are these: HepG2, 48 h. Type of test: functional.
Test [6] relates to A549. As to the kind of experiment: Growth inhibition of human A549 cells after 48 hrs by sulforhodamine B assay. Format: functional. Conditions: A549, 48 h.
Test [7] concerns A549. Briefly: Cell cycle arrest in human A549 cells assessed as accumulation at S phase at 1 uM after 48 hrs by propidium iodide staining based flow cytometry (reference value: 10%). Format: functional.

As usually defined, the inhibition is how much of the control response was suppressed. In the case of `COc1cc(Nc2ncccc2-c2nnc(Nc3ccc(Cl)cc3)o2)cc(OC)c1OC`, the inhibition on Tubulin (Bos taurus) stood at 38%.
By GI50 is commonly meant the concentration giving 50% growth inhibition. High values mean lower sensitivity of the cells, low ones greater sensitivity of the cells. As for `COC(=O)Nc1nc2cc(C(=O)c3cccs3)ccc2[nH]1` [NOCODAZOLE], the “fold change (FC)” value in the test with A549 [1] and in the test with A549 [5] was 4 each time. Moreover, the Activity in the test with A549 [2] was 18%; with A549 [3], 55%; in the test with A549 [7], 25%. Besides, the 50% growth inhibitory concentration (GI50) in the test on HeLa worked out at 750 nM; in the test with MDA-MB-231 it was 150 nM; in the test with DU-145, 190 nM; in the test on HepG2, 760 nM; in the test on A549 [6] it was 210 nM. Further, in the test on A549 [4], the Ratio stood at 6. Further, on Tubulin (Bos taurus), the inhibition was 70%.
On to `COc1cc(Nc2nnc(-c3cccnc3Nc3cc(OC)c(OC)c(OC)c3)o2)cc(OC)c1OC`, for which the inhibition against Tubulin (Bos taurus) turned out to be 41%.
